Measured values taken from ChEMBL document CHEMBL5532761, “Rosavin improves insulin resistance and alleviates hepatic and kidney damage via modulating the cGAS-STING pathway and autophagy signaling in HFD/STZ-induced T2DM animals” (2024).
Active and inactive are the calls of the source. No cut-off for these calls is given here.

Legend:
[1] = test system: Rattus norvegicus; experiment: (§1) Antidiabetic activity in high fat diet-STZ induced diabetic Wistar rat model assessed as insulin level in serum at 30 mg/kg, ip pretreated with high fat diet for 4 weeks followed by 8 hrs fasting after STZ administration and measured 4 weeks after compound treatment by ELISA (reference value: 16.53 +/- 1.14 microU/ml); format: functional
[2] = test system: Rattus norvegicus; experiment: (§2) Antidiabetic activity in high fat diet-STZ induced diabetic Wistar rat model assessed as mean area percentage of LC3B in kidney at 30 mg/kg, ip pretreated with high fat diet for 4 weeks followed by 8 hrs fasting after STZ administration and measured after 4 weeks of compound treatment by immunohistochemistry based microscopic analysis (reference value: 2.47 +/- 0.356 %); format: functional
[3] = test system: Rattus norvegicus; experiment: as §1, with “urine albumin to creatinine ratio” for “insulin level in serum”, “treatment” for “treatment by ELISA”, “87.13” for “16.53”, “9.75 mg/g)” for “1.14 microU/ml)”; format: functional
[4] = test system: Rattus norvegicus; experiment: (§3) Antidiabetic activity in high fat diet-STZ induced diabetic Wistar rat model assessed as binucleated cells in liver at 30 mg/kg, ip pretreated with high fat diet for 4 weeks followed by 8 hrs fasting after STZ administration and measured 4 weeks after compound treatment by hematoxylin and eosin staining based microscopic analysis; format: functional, organism-based
[5] = test system: Rattus norvegicus; experiment: Antidiabetic activity in high fat diet-STZ induced diabetic Wistar rat model assessed as preserved integrity of tubular epithelium in kidney at 20 to 30 mg/kg, ip pretreated with high fat diet for 4 weeks followed by 8 hrs fasting after STZ administration and measured 4 weeks after compound treatment by hematoxylin and eosin staining based microscopic analysis; format: functional, organism-based; conditions: dose 20-30 mg/kg
[6] = test system: Rattus norvegicus; experiment: as §3, with “protection against replacement of hepatocellular necrosis with inflammatory” for “binucleated”, “cells” for “cells in liver”, “10” for “30”; format: functional, organism-based
[7] = test system: Rattus norvegicus; experiment: (§4) Antidiabetic activity in high fat diet-STZ induced diabetic Wistar rat model assessed as creatinine level at 10 mg/kg, ip pretreated with high fat diet for 4 weeks followed by 8 hrs fasting after STZ administration and measured 4 weeks after compound treatment (reference value: 3.88 +/- 0.502 mg%); format: functional
[8] = test system: Rattus norvegicus; experiment: Antidiabetic activity in high fat diet-STZ induced diabetic Wistar rat model assessed as urine albumin to creatinine ratio at 20 mg/kg, ip pretreated with high fat diet for 4 weeks followed by 8 hrs fasting after STZ administration and measured 4 weeks after compound treatment (reference value: 87.13 +/- 9.75 mg/g); format: functional
[9] = test system: Rattus norvegicus; experiment: as §4, with “HDL-cholesterol” for “creatinine”, “0.688” for “3.88”, “0.288 mmol/L)” for “0.502 mg%)”; format: functional
[10] = test system: Rattus norvegicus; experiment: (§5) Antidiabetic activity in high fat diet-STZ induced diabetic Wistar rat model assessed as AST level at 30 mg/kg, ip pretreated with high fat diet for 4 weeks followed by 8 hrs fasting after STZ administration and measured 4 weeks after compound treatment (reference value: 136.3 +/- 22.8 IU/L); format: functional
[11] = test system: Rattus norvegicus; experiment: as §4, with “cholesterol” for “creatinine”, “10.39” for “3.88”, “1.3 mmol/L)” for “0.502 mg%)”; format: functional
[12] = test system: Rattus norvegicus; experiment: as §3, with “reduction” for “binucleated cells”, “adipocyte diameter in adipose tissue” for “liver”, “10” for “30”; format: functional, organism-based
[13] = test system: Rattus norvegicus; experiment: as §5, with “triglyceride” for “AST”, “17.05” for “136.3”, “0.803 mmol/L)” for “22.8 IU/L)”; format: functional
[14] = test system: Rattus norvegicus; experiment: (§6) Antidiabetic activity in high fat diet-STZ induced diabetic Wistar rat model assessed as creatinine level at 20 mg/kg, ip pretreated with high fat diet for 4 weeks followed by 8 hrs fasting after STZ administration and measured 4 weeks after compound treatment (reference value: 3.88 +/- 0.502 mg%); format: functional
[15] = test system: Rattus norvegicus; experiment: as §3, with “reduction in inflammatory cell infiltrates” for “binucleated cells”; format: functional, organism-based
[16] = test system: Rattus norvegicus; experiment: as §6, with “triglyceride” for “creatinine”, “17.05” for “3.88”, “0.803 mmol/L)” for “0.502 mg%)”; format: functional
[17] = test system: Rattus norvegicus; experiment: Antidiabetic activity in high fat diet-STZ induced diabetic Wistar rat model assessed as increase in AC074117.2 lncRNA expression in adipose tissue at 10 to 30 mg/kg, ip pretreated with high fat diet for 4 weeks followed by 8 hrs fasting after STZ administration and measured 4 weeks after compound treatment by RT-qPCR analysis; format: functional, organism-based; conditions: dose 10-30 mg/kg
[18] = test system: Rattus norvegicus; experiment: Antidiabetic activity in ip dosed high fat diet-STZ induced diabetic Wistar rat model assessed as reduction of DDX58 mRNA expression in kidney pretreated with high fat diet for 4 weeks followed by 8 hrs fasting after STZ administration and measured 4 weeks after compound treatment by RT-qPCR analysis; format: functional, organism-based; conditions: dose 10-30 mg/kg
[19] = test system: Rattus norvegicus; experiment: as §3, with “reduction in luminal exfoliation of epithelial” for “binucleated”, “kidney” for “liver”; format: functional, organism-based
[20] = test system: Rattus norvegicus; experiment: as §3, with “intact hepatocytes” for “binucleated cells in liver”; format: functional, organism-based
[21] = test system: Rattus norvegicus; experiment: as §3, with “organized histological features of hepatic parenchyma” for “binucleated cells in liver”; format: functional, organism-based
[22] = test system: Rattus norvegicus; experiment: as §2, with “TNF alpha” for “LC3B”, “liver” for “kidney”, “10” for “30”, “18.28” for “2.47”, “1.31” for “0.356”; format: functional
[23] = test system: Rattus norvegicus; experiment: as §6, with “glucose” for “creatinine”, “level in serum” for “level”, “527.7” for “3.88”, “49.1” for “0.502”; format: functional
[24] = test system: Rattus norvegicus; experiment: as §1, with “glucose” for “insulin”, “treatment” for “treatment by ELISA”, “527.7” for “16.53”, “49.1 mg%)” for “1.14 microU/ml)”; format: functional
[25] = test system: Rattus norvegicus; experiment: as §2, with “TNFalpha” for “LC3B”, “20” for “30”, “24” for “2.47”, “1.5” for “0.356”; format: functional

Q: What does the source list for `O[C@@H]1[C@@H](O)[C@H](OC/C=C/c2ccccc2)O[C@H](CO[C@@H]2OC[C@H](O)[C@H](O)[C@H]2O)[C@H]1O`?
A: Activity [1]: 5.64 uU/ml; Activity [2]: 12.7%; Activity [3]: 20.88 mg/g; Activity [4]: Active; Activity [5]: Active; Activity [6]: inactive; Activity [7]: 2.12 mg%; Activity [8]: 33.38 mg/g; Activity [9]: 0.916 mmol/L; Activity [10]: 30.25 IU/L; Activity [11]: 6.09 mmol/L; Activity [12]: inactive; Activity [13]: 4.03 mmol/L; Activity [14]: 1.51 mg%; Activity [15]: Active; Activity [16]: 6.46 mmol/L; Activity [17]: Active; Activity [18]: Dose-Dependent Effect; Activity [19]: Active; Activity [20]: Active; Activity [21]: Active; Activity [22]: 11.3%; Activity [23]: 174.8 mg%; Activity [24]: 123.9 mg%; Activity [25]: 13.17%
